pIC50: −log10 of the molar value. Activity calls are given as the source filed them. No cut-off for these calls is given here.
Legend:
[1] = Antiproliferative activity against human MKN45 cells after 72 hrs by methylene blue assay; assay type: functional, cell-based; settings: MKN-45, 72 h
KB = assay: Antiproliferative activity against human KB cells after 72 hrs by methylene blue assay; assay type: functional, cell-based
[2] = Toxicity in HUVEC assessed as cell viability at 500 nM after 4 hrs relative to control; assay type: cell-based; settings: human, HUVEC cells; read-out: Activity
HUVEC [3] = assay: Antivascular activity in HUVEC assessed as inhibition of VEGF-induced capillary tube formation at 100 nM after 4 hrs by microscopic analysis relative to control; assay type: functional, Homo sapiens; parameters: scale not given: the % may be the effect or the level left
[4] = Toxicity in HUVEC assessed as cell viability at 50 nM after 4 hrs relative to control; assay type: cell-based; settings: human, HUVEC cells; read-out: Activity
HUVEC [5] = assay: Antivascular activity in HUVEC assessed as inhibition of VEGF-induced capillary tube formation at 50 nM after 4 hrs by microscopic analysis relative to control; assay type: functional, Homo sapiens; parameters: scale not given: the % may be the effect or the level left
[6] = Antiproliferative activity against human KB-VIN10 cells expressing P-gp170/MDR after 72 hrs by methylene blue assay; assay type: functional, cell-based; settings: KB-VIN10, 72 h
Tubulin = Tubulin (Bos taurus, UniProt Q6B856+Q862F3); assay: Inhibition of bovine brain tubulin polymerization after 30 mins
Tubulin, sequence (Q6B856 whole entry): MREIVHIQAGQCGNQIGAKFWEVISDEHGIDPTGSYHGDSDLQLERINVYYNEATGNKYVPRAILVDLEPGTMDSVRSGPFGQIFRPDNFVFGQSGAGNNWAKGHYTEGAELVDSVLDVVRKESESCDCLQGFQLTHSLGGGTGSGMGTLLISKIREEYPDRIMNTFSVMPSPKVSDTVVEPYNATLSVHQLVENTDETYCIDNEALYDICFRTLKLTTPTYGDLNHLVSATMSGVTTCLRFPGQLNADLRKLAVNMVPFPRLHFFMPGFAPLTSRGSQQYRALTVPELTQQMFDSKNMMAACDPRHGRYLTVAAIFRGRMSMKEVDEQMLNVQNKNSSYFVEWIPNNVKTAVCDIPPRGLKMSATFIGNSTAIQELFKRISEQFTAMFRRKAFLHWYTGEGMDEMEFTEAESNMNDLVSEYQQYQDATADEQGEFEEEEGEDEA
Tubulin, sequence (Q862F3 whole entry): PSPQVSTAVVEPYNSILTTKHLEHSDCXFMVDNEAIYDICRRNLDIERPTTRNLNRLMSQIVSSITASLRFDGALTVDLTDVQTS

[7] = Toxicity in HUVEC assessed as cell viability at 2500 nM after 4 hrs relative to control; assay type: cell-based; settings: human, HUVEC cells; read-out: Activity
Tubulin (Homo sapiens) = Tubulin (Homo sapiens) (UniProt P68371+Q9H4B7+P0DPH7+P68366+Q13509+Q71U36+P04350+Q3ZCM7+P07437+P68363+Q9BQE3+Q6PEY2+Q13885+Q9BVA1+Q9BUF5); assay: Displacement of 1 uM of [3H]colchicine from biotin-labeled tubulin (unknown origin) after 2 hrs by scintillation proximity assay; assay type: protein-complex assay
[8] = Antiproliferative activity against human KB-7d cells expressing MRP after 72 hrs by methylene blue assay; assay type: functional, cell-based; settings: KB7D
HT-29 = assay: Antiproliferative activity against human HT-29 cells after 72 hrs by methylene blue assay; assay type: functional, cell-based
[9] = Toxicity in HUVEC assessed as cell viability at 100 nM after 4 hrs relative to control; assay type: cell-based; settings: human, HUVEC cells; read-out: Activity
HUVEC [10] = assay: Antivascular activity in HUVEC assessed as inhibition of VEGF-induced capillary tube formation at 500 nM after 4 hrs by microscopic analysis relative to control; assay type: functional, Homo sapiens; parameters: scale not given: the % may be the effect or the level left
HUVEC [11] = assay: Antivascular activity in HUVEC assessed as inhibition of VEGF-induced capillary tube formation at 2500 nM after 4 hrs by microscopic analysis relative to control; assay type: functional, Homo sapiens; parameters: scale not given: the % may be the effect or the level left
[12] = Antiproliferative activity against human KB-S15 cells expressing P-gp170/MDR after 72 hrs by methylene blue assay; assay type: functional, cell-based; settings: KB-S15, 72 h
[13] = Toxicity in HUVEC assessed as cell viability at 20 nM after 4 hrs relative to control; assay type: cell-based; settings: human, HUVEC cells; read-out: Activity
HUVEC [14] = assay: Antivascular activity in HUVEC assessed as inhibition of VEGF-induced capillary tube formation at 20 nM after 4 hrs by microscopic analysis relative to control; assay type: functional, Homo sapiens; parameters: scale not given: the % may be the effect or the level left

SMILES | pIC50 [1] | pIC50 (KB) | pIC50 [6] | pIC50 (Tubulin) | inhibition (Tubulin (Homo sapiens)) [%] | pIC50 [8] | Activity (HT-29) | pIC50 [12] | other results
COc1cc(C(=O)c2ccc3c(ccn3C)c2)c(O)c(OC)c1OC | 7.03 | 7.48 | 7.68 | 5.31 | 84.4 | 7.74 | Active | 7.79 | viability at 4 h, 0.5 µM [2]: 97%; Activity (HUVEC [3]): 53%; viability at 4 h, 0.05 µM [4]: 95%; Activity (HUVEC [5]): 72%; viability at 4 h, 2.5 µM [7]: 95%; viability at 4 h, 0.1 µM [9]: 94%; Activity (HUVEC [10]): 41%; Activity (HUVEC [11]): 0%
CC(=O)O[C@H]1C(=O)[C@@]2(C)[C@H]([C@H](OC(=O)c3ccccc3)[C@]3(O)C[C@H](OC(=O)[C@H](O)[C@@H](NC(=O)c4ccccc4)c4ccccc4)C(C)=C1C3(C)C)[C@]1(OC(C)=O)CO[C@@H]1C[C@@H]2O [PACLITAXEL] |  |  |  |  |  | 8.08 |  |  | 
COc1cc(C(=O)c2ccc3ncccc3c2)c(O)c(OC)c1OC | 6.94 | 7.64 |  |  |  |  | Active |  | 
COc1cc(C(=O)c2ccnc3ccccc23)c(O)c(OC)c1OC | 5.22 | 5.11 |  |  |  |  | Active |  | 
COc1cc(C(=O)c2cccc3c2ccn3C)c(O)c(OC)c1OC | 7.26 | 7.24 | 7.37 | 5.09 | 66.3 | 7.40 | Active | 7.49 | 
COc1ccc2c(C(=O)c3cc(OC)c(OC)c(OC)c3O)c[nH]c2c1 | 7.98 | 8.06 | 8.02 | 5.38 | 87.2 | 8.07 | Active | 8.24 | viability at 4 h, 0.5 µM [2]: 93%; Activity (HUVEC [3]): 49%; viability at 4 h, 0.05 µM [4]: 100%; Activity (HUVEC [5]): 72%; viability at 4 h, 2.5 µM [7]: 99%; viability at 4 h, 0.1 µM [9]: 96%; Activity (HUVEC [10]): 0%; Activity (HUVEC [11]): 0%
COc1ccc2nc(C(=O)c3cc(OC)c(OC)c(OC)c3O)ccc2c1 | 5.93 | 6.64 |  |  |  |  | Active |  | 
COc1cc([C@@H]2c3cc4c(cc3[C@@H](O[C@@H]3O[C@@H]5CO[C@@H](C)O[C@H]5[C@H](O)[C@H]3O)[C@H]3COC(=O)[C@H]23)OCO4)cc(OC)c1O [ETOPOSIDE] |  |  |  |  |  |  |  | 5.46 | 
CC[C@]1(O)C[C@H]2CN(CCc3c([nH]c4ccccc34)[C@@](C(=O)OC)(c3cc4c(cc3OC)N(C=O)[C@H]3[C@@](O)(C(=O)OC)[C@H](OC(C)=O)[C@]5(CC)C=CCN6CC[C@]43[C@@H]65)C2)C1 [VINCRISTINE] |  |  |  |  |  | 8.82 |  | 8.68 | 
COc1ccc(/C=C\c2cc(OC)c(OC)c(OC)c2)cc1O [COMBRETASTATIN A4] | 8.49 |  |  |  |  |  |  |  | viability at 4 h, 0.02 µM [13]: 94%; Activity (HUVEC [14]): 0%

— ChEMBL document CHEMBL3593220, “Antimitotic and antivascular activity of heteroaroyl-2-hydroxy-3,4,5-trimethoxybenzenes” (Bioorg Med Chem, 2015)
